Here are results for 48 molecules from US10214544B2, “Imidazopyridazine and imidazothiadiazole compounds” (Universite de Montreal, priority 2015, dated 2019).

The EC50 is the concentration at which the effect is half-maximal.

Molecules are shown by their SMILES.

PAR4, sequence (Q96RI0 18-385): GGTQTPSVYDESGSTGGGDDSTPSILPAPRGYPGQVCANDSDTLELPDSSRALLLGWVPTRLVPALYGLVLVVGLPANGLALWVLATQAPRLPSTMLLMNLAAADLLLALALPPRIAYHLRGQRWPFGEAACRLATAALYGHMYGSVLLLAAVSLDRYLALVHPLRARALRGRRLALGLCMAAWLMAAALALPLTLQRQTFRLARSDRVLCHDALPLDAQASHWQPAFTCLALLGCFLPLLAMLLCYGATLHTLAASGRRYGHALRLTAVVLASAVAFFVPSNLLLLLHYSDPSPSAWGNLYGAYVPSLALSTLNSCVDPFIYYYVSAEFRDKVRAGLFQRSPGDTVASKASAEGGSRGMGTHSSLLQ

This assay has as its target PAR4 (Homo sapiens (Human), UniProt Q96RI0). Briefly: FLIPR assay in PAR4-expressing HEK293 cells (PAR4 antagonist activity). Particulars: inhibition of H-Ala-Phe(4-F)-Pro-Gly-Trp-Leu-Val-Lys-Asn-Gly-NH2-induced intracellular calcium mobilization. In kind it is cell-based. An excerpt:
The FLIPR assay is an exemplary in vitro assay for measuring the activity of the PAR4 antagonists of the present invention. In this assay, intracellular calcium mobilization is induced in PAR4 expressing cells by a PAR4 agonist and calcium mobilization is monitored. See, e.g., Example A.
HEK293 cells stably expressing PAR4 were generated by a standard method of transfection of human PAR4 (F2R23) cDNA expression vector and selected based on PAR4 protein expression or mRNA expression. […] These cells also express endogenous PAR1 and can elicit calcium signal upon stimulation with PAR1 agonist peptide. Therefore, the same cells were also used to determine selectivity against PAR1 and agonist activity for both receptors. Cells from HEK293 PAR4 Clone 1.2A (BMS Arctic ID 383940) were propagated and used for calcium mobilization studies.
FLIPR-based calcium mobilization assay in HEK293 cells was used to measure PAR4 antagonism, agonism, and selectivity against PAR1. The activity of the PAR4 antagonists of the present invention were tested in PAR4 expressing cells by monitoring H-Ala-Phe(4-F)-[…]NH2-induced intracellular calcium mobilization. Counter screens for agonist activity and PAR1 antagonist activity were also performed. Briefly, PAR1/PAR4-expressing HEK293 cells were grown in DMEM (Life Technology, Grand Island, N.Y.) containing 10% heat-inactivated FBS, 1% Penicillin-Streptomycin, 10 μg/mL blasticidin, and 100 μg/mL Zeocin at 37° C. with 5% CO2. Cells were plated overnight prior to the experiment in a black 384-well Purecoat Amine clear bottom plate (Becton Dickinson Biosciences, San Jose, Calif.) at 10,000 cells/well in 30 μL growth medium and incubated in a humidified chamber at 37° C. with 5% CO2 overnight. Prior to compound addition, the cell medium was replaced with […] of 1× calcium and magnesium-containing Hank's Balanced Saline Solution (HBSS) (with 20 mM HEPES) and 1:1000 diluted fluorescent calcium indicator (Codex Biosolutions, Gaithersburg, Md.). After a 30 minute incubation period at 37° C. and a further 30 minute incubation and equilibration period at room temperature, 20 μL test compound (diluted in 1× HBSS buffer) was added at various concentrations at 0.17% dimethyl sulfoxide (DMSO) final concentration. Changes in fluorescence intensity were measured using a Functional Drug Screening System (FDSS, Hamamatsu, Japan) to determine agonist activities. The cells were then incubated for 30 minutes at room temperature followed by addition of 20 μL of agonist peptide for antagonist activity measurement. […] Compound potency was derived from 11-point concentration-response curves.
The following Table sets out results obtained employing various compounds of the invention tested in the FLIPR assay. As indicated above, the FLIPR assay, an in vitro assay, measures the PAR4 antagonist activity of compounds tested as described in Example A.
(Calcium flux is commonly read through the fluorescence of an indicator in the cells.)
As to `COc1cc(OCc2cccc(NC(=O)c3ccnc(F)c3)c2)c2cc(-c3cn4nc(OC)sc4n3)oc2c1` [Example 48], the EC50 worked out at 2.7 nM. On to `COc1cc(OCc2cccc3c2CCN3C(=O)c2ccc(F)cc2)c2cc(-c3cn4nc(OC)sc4n3)oc2c1` [Example 116], for which the EC50 was found to be 140 nM. Under `COc1cc(OCc2cccc(NC(=O)c3ccc(Br)cn3)c2)c2cc(-c3cn4nc(OC)sc4n3)oc2c1` [Example 65] stands 1.1 nM; under `COc1cc(OCc2cccc(NC(=O)c3cncnc3)c2)c2cc(-c3cn4nc(OC)sc4n3)oc2c1` [Example 57], 1.8 nM; under `COc1cc(OCc2ccc3c(c2)N(C(=O)c2csc(-c4ccccc4)n2)CC3)c2cc(-c3cn4nc(OC)sc4n3)oc2c1` [Example 112], 0.55 nM. Turning to `COc1cc(OCc2cccc(NC(=O)c3ccc(C(F)(F)F)c(F)c3)c2)c2cc(-c3cn4nc(OC)sc4n3)oc2c1` [Example 161], the half-maximal effective concentration (EC50) stood at 1.5 nM. Under `COc1cc(OCc2cccc(NC(=O)c3ccccc3)c2)c2cc(-c3cn4nc(OC)sc4n3)oc2c1` [Example 1, N-(3-(((6-methoxy-2-(2-methoxyimidazo[2,1-b][1,3,4]thiadiazol-6-yl)benzofuran-4-yl)oxy)methyl)phenyl)benzamide] stands 1.1 nM. Take `COc1cc(OCc2cccc(N(C)C(=O)c3ccc(F)cc3)c2)c2cc(-c3cn4nc(OC)sc4n3)oc2c1` [Example 87]: the EC50 was 5.7 nM.

For the molecule `COc1cc(OCc2cccc(NC(=O)c3ccccc3C(F)(F)F)c2)c2cc(-c3cn4nc(OC)sc4n3)oc2c1` [Example 13], the EC50 worked out at 1.9 nM.

`COc1cc(OCc2cccc(NC(=O)c3cc(Cl)cc(OCc4ccccc4)c3)c2)c2cc(-c3cn4nc(OC)sc4n3)oc2c1` [Example 67]: the EC50 came to 680 nM. Consider `COc1cc(OCc2cccc(NC(=O)c3ccc(C)nc3O)c2)c2cc(-c3cn4nc(OC)sc4n3)oc2c1` [Example 73], for which the half-maximal effective concentration (EC50) worked out at 3.6 nM. As to `COc1cc(OCc2ccc3c(c2)N(C(=O)c2ccccc2C)CC3)c2cc(-c3cn4nc(OC)sc4n3)oc2c1` [Example 101], the EC50 was 3.1 nM. Take `COc1cc(OCc2ccc3c(c2)N(C(C)=O)CC3)c2cc(-c3cn4nc(OC)sc4n3)oc2c1` [Example 107]: the EC50 is 26 nM.

Consider `COc1cc(OCc2cccc3c2CCN3C(=O)c2ccc(C)cc2)c2cc(-c3cn4nc(OC)sc4n3)oc2c1` [Example 123], for which the EC50 worked out at 5 nM.

For `COc1cc(OCc2cccc(NC(=O)c3ccccc3OC(C)=O)c2)c2cc(-c3cn4nc(OC)sc4n3)oc2c1` [Example 8], the EC50 is 1.6 nM.

On to `COc1cc(OCc2cccc(NC(=O)c3ccc(C)nc3Cl)c2)c2cc(-c3cn4nc(OC)sc4n3)oc2c1` [Example 64], for which the EC50 was determined as 1.4 nM.

Turning to `COc1cc(OCc2cccc(NC(=O)c3c(F)cccc3F)c2)c2cc(-c3cn4nc(OC)sc4n3)oc2c1` [Example 143], the EC50 was 5.9 nM. Take `COc1cc(OCc2cccc(NC(=O)c3cnc(-c4ccccc4)nc3C)c2)c2cc(-c3cn4nc(OC)sc4n3)oc2c1` [Example 66]: the concentration giving a half-maximal response (EC50) came to 5.7 nM. Under `COc1cc(OCc2cccc(NC(=O)c3c(OC)cccc3OC)c2)c2cc(-c3cn4nc(OC)sc4n3)oc2c1` [Example 162] stands 11 nM; under `COc1cc(OCc2cccc3c2CCN3C(=O)c2cc(OC(F)F)cc(C(F)(F)F)c2)c2cc(-c3cn4nc(OC)sc4n3)oc2c1` [Example 130], 5.2 nM.

As to `COc1cc(OCc2cccc(NC(=O)c3ccc(N(C)C)cc3)c2)c2cc(-c3cn4nc(OC)sc4n3)oc2c1` [Example 43], the EC50 came to 1.6 nM.

As to `COc1cc(OCc2cccc3c2CCN3C(=O)c2ccccc2OC)c2cc(-c3cn4nc(OC)sc4n3)oc2c1` [Example 124], the EC50 was 190 nM.

For the molecule `COc1cc(Cl)cc(C(=O)Nc2cccc(COc3cc(OC)cc4oc(-c5cn6nc(OC)sc6n5)cc34)c2)c1` [Example 63], the concentration giving a half-maximal response (EC50) came to 1.4 nM. As for `COc1cc(OCc2cccc3c2CCN3C(=O)c2ccccc2F)c2cc(-c3cn4nc(OC)sc4n3)oc2c1` [Example 120], the EC50 is 4.2 nM.

For `COc1cc(OCc2cccc(NC(=O)C3CCCC3)c2)c2cc(-c3cn4nc(OC)sc4n3)oc2c1` [Example 145], the EC50 turned out to be 6.8 nM. As to `COc1cc(OCc2cccc(NC(=O)c3c(F)cc(F)cc3F)c2)c2cc(-c3cn4nc(OC)sc4n3)oc2c1` [Example 21], the EC50 was 1.5 nM. Under `COc1cc(OCc2ccc3c(c2)N(C(=O)c2cc(C)cc(C(F)(F)F)c2)CC3)c2cc(-c3cn4nc(OC)sc4n3)oc2c1` [Example 111] stands 6 nM.

As for `COc1cc(OCc2cccc3c2CCN3)c2cc(-c3cn4nc(OC)sc4n3)oc2c1` [Example 114, 6-(4-(Indolin-4-ylmethoxy)-6-methoxybenzofuran-2-yl)-2-methoxyimidazo[2,1-b][1,3,4]thiadiazole], the concentration for a half-maximal effect (EC50) was 37 nM. Under `COc1cc(OCc2cccc(NC(=O)c3cccc(Cl)c3Cl)c2)c2cc(-c3cn4nc(OC)sc4n3)oc2c1` [Example 156] stands 1.7 nM; under `COc1cc(OCc2cccc(NC(=O)c3cc(C)cc(C(F)(F)F)c3)c2)c2cc(-c3cn4nc(OC)sc4n3)oc2c1` [Example 71], 1.9 nM; under `COc1cc(OCc2cccc(NC(=O)c3ccc([N+](=O)[O-])cc3)c2)c2cc(-c3cn4nc(OC)sc4n3)oc2c1` [Example 33], 1.8 nM. The value for `COc1cc(OCc2cccc(NC(=O)c3cc(OCc4ccccc4)cc(C(F)(F)F)c3)c2)c2cc(-c3cn4nc(OC)sc4n3)oc2c1` [Example 62] was 57 nM; that for `COc1cc(OCc2cccc(N(C)C(=O)c3ccc(C)cc3)c2)c2cc(-c3cn4nc(OC)sc4n3)oc2c1` [Example 89] was 3.5 nM. Consider `COc1cc(OCc2cccc(NC(=O)COCc3ccccc3)c2)c2cc(-c3cn4nc(OC)sc4n3)oc2c1` [Example 17], for which the EC50 was found to be 0.55 nM. Turning to `COc1cc(OCc2cccc3c2CCN3C(=O)c2cncnc2)c2cc(-c3cn4nc(OC)sc4n3)oc2c1` [Example 126], the EC50 came to 260 nM.

Take `COc1cc(OCc2cccc(NC(=O)c3csc(-c4ccc(F)cc4)n3)c2)c2cc(-c3cn4nc(OC)sc4n3)oc2c1` [Example 77]: the EC50 amounted to 120 nM.

With `COc1cc(OCc2cccc(NC(=O)C(C)C)c2)c2cc(-c3cn4nc(OC)sc4n3)oc2c1` [Example 136], the EC50 amounted to 3.9 nM.

Turning to `COc1cc(OCc2cccc(NC(=O)c3ccc(OC(F)(F)F)cc3)c2)c2cc(-c3cn4nc(OC)sc4n3)oc2c1` [Example 41], the concentration for a half-maximal effect (EC50) worked out at 1.4 nM.

Regarding `COc1cc(OCc2cccc(NC(=O)c3cc(F)ccc3C)c2)c2cc(-c3cn4nc(OC)sc4n3)oc2c1` [Example 75], the concentration for a half-maximal effect (EC50) came to 1.7 nM.

As to `COc1cc(OCc2cccc(NC(=O)COc3ccccc3)c2)c2cc(-c3cn4nc(OC)sc4n3)oc2c1` [Example 35], the EC50 is 1 nM. Under `COc1cc(OCc2cccc(NC(=O)c3cc(OC(F)F)cc(C(F)(F)F)c3)c2)c2cc(-c3cn4nc(OC)sc4n3)oc2c1` [Example 74] stands 0.95 nM; under `COc1cc(OCc2cccc(NC(=O)c3csc(C(F)(F)F)n3)c2)c2cc(-c3cn4nc(OC)sc4n3)oc2c1` [Example 70], 1 nM. The value for `COc1cc(OCc2ccc3c(c2)N(C(=O)c2ccc(OC)nc2)CC3)c2cc(-c3cn4nc(OC)sc4n3)oc2c1` [Example 106] was 1.5 nM.

As to `COc1cc(OCc2cccc(NC(=O)c3cccn3C)c2)c2cc(-c3cn4nc(OC)sc4n3)oc2c1` [Example 132], the EC50 was 3.8 nM. With `COc1ccc(C(=O)Nc2cccc(COc3cc(OC)cc4oc(-c5cn6nc(OC)sc6n5)cc34)c2)cc1` [Example 18], the EC50 was determined as 0.91 nM.

As to `COc1cc(OCc2cccc(N(C)C(=O)c3cccc(F)c3)c2)c2cc(-c3cn4nc(OC)sc4n3)oc2c1` [Example 85], the concentration giving a half-maximal response (EC50) stood at 6.1 nM. The value for `CNc1cccc(COc2cc(OC)cc3oc(-c4cn5nc(OC)sc5n4)cc23)c1` [Example 82, 3-(((6-Methoxy-2-(2-methoxyimidazo[2,1-b][1,3,4]thiadiazol-6-yl)benzofuran-4-yl)oxy)methyl)-N-methylaniline] was 5.2 nM. `COc1cc(OCc2cccc(NC(=O)C3CCCCC3)c2)c2cc(-c3cn4nc(OC)sc4n3)oc2c1` [Example 150]: the EC50 came out at 2.3 nM.
